Measured values taken from patent publication US12409200B2, “Composition for treating hair loss or promoting hair growth comprising milk thistle flower extract as an active ingredient” (BioSpectrum, Inc., priority 2021, dated 2025).

System: human skin
Assay: Human skin safety test: repeated insult patch test
Assay type: in vivo
Settings: for Number of subjects showing reaction ±: grade ±
Description: In order to confirm that the extract of seed-removed milk thistle flowers according to the present invention is safe for human skin, a skin safety verification test was performed. To this end, a repeated insult patch test was conducted. Nourishing creams containing the seed-removed milk thistle extract of Example 1 in amounts of 0.1%, 0.5% and 1%, respectively, were prepared. Specifically, a water phase containing purified water, triethanolamine and propylene glycol was dissolved by heating to 70° C. and then emulsified by adding a solution obtained by dissolving beeswax, liquid paraffin, an oil component, an emulsifier and a preservative by heating to 70° C. After completion of emulsification, the solution was cooled to 45° C., and the seed-removed milk thistle flower extract was added thereto in amounts of 0.1%, 0.5% and 1% and dispersed therein, followed by cooling to 30° C. As the content of the extract of seed-removed milk thistle flowers was increased from 0.1% to 0.5% and 1%, the content of liquid paraffin was decreased from 9.91% to 9.51% and 9.01%, respectively, thereby preparing nourishing creams. Using the nourishing creams prepared as described above, a repeated insult patch test was conducted on the upper arm areas of 30 healthy adults every other day for a total of 9 times for 24 hours per time to determine whether the extract of seed-removed milk thistle flowers irritated the skin. The patch test was performed using a Finn chamber (Epitest Ltd., Finland). 15 μl of each of the external skin preparations was dropped into the chamber, and then the patch test was performed. Average degree of reaction=[[(reaction index×degree of reaction)/(total number of subjects×highest score (4)]×100]÷number of tests (9) [Equation 2] In the degree of reaction, ± represents a score of 1 point, […], and ++ represents a score of 4. When the average degree of reaction is less than 3, the corresponding composition is determined to be safe.

## CC(C)=CCC/C(C)=C/CC/C(C)=C/CC/C=C(\C)CC/C=C(\C)CCC=C(C)C [Control (squalene), squalene]
30 healthy adults, upper arm, 9 patch tests of 24 hours, Equation 2, less than 3 = safe
  Average degree of reaction: 0.18
Week 1, 1st test
  Number of subjects showing reaction ±: 1
Week 1, 2nd test
  Number of subjects showing reaction ±: 1
